Legend:
HSPC-pDCs = assay: SR1/IL-3 deprivation: flow cytometry of CD123 and CD303; format: cell-based, human
Description: Priming of HSPC-pDCs was performed as previously described [Laustsen, A., et al 2018]. […] HSPC-pDCs were primed with 250 U/mL IFN-β (PBL Assay Science) and 250 U/mL IFN-γ (Peprotech) or left unprimed. Cells were primed for 24 hours before being phenotypically and functionally characterized.
Flow cytometry was used to immunophenotype pDCs. Briefly, cells were spun down and resuspended in 25 μL TruStain FcBlock (Biolegend) diluted in cold FACS buffer (PBS with 2% FCS and 1 mM EDTA) and incubated cold for 15 minutes. Cells were subsequently stained 25 μL with the following antibodies: APC anti-human Lineage Cocktail (CD3 (UCHT1), CD14 (HCD14), CD16 (3G8), CD19 (HIB19), CD20 (2H7) and CD56 (HCD56), 348801, BioLegend), FITC anti-human CD11c (3.9, 301604, BioLegend), BV421 CD14 (HCD14, 325628, BioLegend), PE CD34 (581, 343506, BioLegend), APC-eFluor780 anti-human CD123 (6H6, 47-1239-42, eBioscience), PE-Cy7 anti-human CD303 (201a, 354214, BioLegend). Cells were stained for 30 min before being washed two times in FACS buffer and finally resuspended in 200 μL FACS Buffer. Fluorescence intensities were measured using the Attune NxT Flow Cytometer equipped with 4 lasers (405 nm, 488 nm, 561 nm, and 638 nm). Data analysis was done using FlowJo (Version 10.8.1, Tree Star, Ashland, OR, USA.

[1] = system: Cord-blood derived CD34+HSPCs; assay: SR1/IL-3 deprivation during final 3 days of HSPC-pDC differentiation: cell growth and viability; format: cell-based, human
Description: In addition, 1 μM of the small molecule inhibitor StemRegenin 1 (SR1, […] Technologies), 20 μg/mL streptomycin and 20 U/mL penicillin (Gibco, Life Technologies) and 50 μg/mL of ascorbic acid (Sigma Aldrich) was added. Cells were cultured at 37° C., 95% humidity, and 5% CO2 for 17 days, medium was replenished every 2-4 day. […] Viability and total cell numbers during expansion and differentiation of HSPCs was determined using a TC20 Automated Cell Counter (Bio-Rad).

CC(C)n1cnc2c(NCCc3ccc(O)cc3)nc(-c3csc4ccccc34)nc21 [SR1, StemRegenin 1]
CD303 surface expression (HSPC-pDCs; SR1 removed from media vs standard condition): no apparent difference
CD123 surface expression (HSPC-pDCs; SR1 removed from media, standard culturing condition MEI 1938): 988 (±391) MEI
fold change in number of cells in culture after the 3 days ([1]; named supplement removed day 14-17, standard condition 2.31 (±0.49)): 2.38 (±0.23)
difference in the number of cells in culture between day 14 and 17 ([1]; named supplement removed from media day 14-17, standard condition 22.5×10^6 (±2.15×10^6)): 25.3×10^6 (±3.12×10^6) cells

From US20240141294A1, “CGMP COMPLIANT PRODUCTION AND EXPANSION OF PLASMACYTOID DENDRITIC CELLS FROM HEMATOPOIETIC STEM AND PROGENITOR CELLS” (AARHUS UNIVERSITET, priority 2021, published 2024)
